In patent publication US20110028507A1, “PYRIDINE DERIVATIVES AND METHODS OF USE THEREOF” (CRYSTALGENOMICS, INC., priority 2007, published 2011):

Assays:
HIF-PH2 (EGLN1) = target: T1, HIF-PH2 (EGLN1) (Homo sapiens, UniProt Q9GZT9); assay: HIF-PH2 (PHD2) assay (fluorescence polarization method); format: biochemical; conditions: 200 nM HIF PH2 enzyme, 50 nM peptide substrate, 30° C. one hour; read-out: IC50 (HIF PH2 inhibition activity)
T1 construct: made in house; host or cells: E. coli
Experimental: HIF-PH2 (EGLN1) was expressed from E. coli cells, and purified using two process: an Ni-affinity chromatography column and a size-exclusion chromatography column.
To evaluate activities of an HIF PH2 inhibitor, HIF PH2 enzyme that was first overexpressed by genetic recombination and then purified was used to perform an enzyme reaction. […] At this time, 2 mM ascorbic acid and 5 mM ketoglutarate with 100 μM FeCl2 or without FeCl2, were used together with crude enzyme. A concentration of HIF PH2 inhibitor to be tested was treated and reacted at 30° C. for one hour. After the reaction, the resulting reaction product was boiled at 95° C. for one minute to suppress the enzyme reaction.
To determine whether prolyl hydroxylation occurs in the substrate as the secondary reaction, 500 nM GST-VBC (GST-VHL-Elongin B-Elongin C) protein was added to a reaction buffer (50 mM Tris-Cl (pH8.0), 120 mM NaCl, 0.5% Nonidet P40), and a GST-VBC binding reaction was carried out at room temperature for 30 minutes.
A fluorescence polarization value of a sample that is not treated with the HIF PH2 inhibitor was used as 100% control, and the activities of the HIF PH2 inhibitor were measured as percentage of the remaining HIF PH2 enzyme activity in samples treated with a concentration of the HIF PH2 inhibitor to be tested.

EPO = assay: Human EPO immunoassay (ELISA of Hep3B culture media); format: cell-based; conditions: Hep3B cells, compound at 100 μM, 24-hour incubation; for EPO (mIU/ml): culture media ELISA; for fold induction at 100 µM: Homo sapiens, read-out: Fold Induction over control (EPO Induction)
Experimental: Human cells derived from hepatocarcinoma (Hep3B) tissue (see, e.g., American Type Culture Collection, Manassas Va.) were grown at 37° C., 20% O2, 5% CO2 in DMEM (GIBCO)+10% FBS, 4.5 g/L D-Glucose; L-Glutamate and 110 mg/L sodium pyruvate. Ninety-six well plates were seeded with 4×10^4 HEP3B cells/well. The media was removed and replaced with DMEM+10% FBS. Compounds were added to wells at concentrations between 1 μM-100 μM for a 24-hour incubation. Cell culture media was harvested and EPO concentration was determined using a Human Erythropoietin Quantikine IVD ELISA Kit (R&D Systems®, Minneapolis, Minn.) following the manufacturer's instructions for the benchtop assay.

T1 sequence (Q9GZT9 whole entry, species assumed): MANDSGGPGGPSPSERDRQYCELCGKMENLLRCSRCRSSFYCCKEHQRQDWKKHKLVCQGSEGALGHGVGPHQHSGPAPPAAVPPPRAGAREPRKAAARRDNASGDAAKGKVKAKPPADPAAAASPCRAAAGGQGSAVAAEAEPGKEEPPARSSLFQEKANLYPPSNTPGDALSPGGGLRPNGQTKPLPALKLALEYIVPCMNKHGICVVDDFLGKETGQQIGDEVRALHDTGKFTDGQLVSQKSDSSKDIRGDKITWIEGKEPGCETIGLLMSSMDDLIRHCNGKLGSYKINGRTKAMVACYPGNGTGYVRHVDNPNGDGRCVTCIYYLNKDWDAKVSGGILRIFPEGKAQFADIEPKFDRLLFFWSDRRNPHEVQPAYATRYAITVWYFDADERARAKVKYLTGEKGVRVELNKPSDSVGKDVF

Row | SMILES | IC50 (HIF-PH2 (EGLN1)) | EPO (mIU/ml) (EPO) | fold induction at 100 µM (EPO)
1 | O=C(O)CNC(=O)c1nc(Br)c2c(sc3ccccc32)c1F [[(1-Bromo-4-fluoro-benzo[4,5]thieno[3,2-c]pyridine-3-carbonyl)-amino]-acetic acid] | < 25 µM | – | –
2 | O=C(O)CNC(=O)c1nc(Cl)c2c(sc3ccc(O)cc32)c1O [[(1-Chloro-4,8-dihydroxy-benzo[4,5]thieno[3,2-c]pyridine-3-carbonyl)-amino]-acetic acid] | < 25 µM | I (I = 0-20 mIU/ml) | < 20
3 | CC(C)Oc1ccc2c(c1)sc1c(O)c(C(=O)NCC(=O)O)nc(Cl)c12 [[(1-Chloro-4-hydroxy-7-isopropoxy-benzo[4,5]thieno[3,2-c]pyridine-3-carbonyl)-amino]-acetic acid] | < 25 µM | L (L = >61 mIU/ml) | 21 to 50
4 | COc1ccc2c(c1)sc1c(O)c(C(=O)NCC(=O)O)nc(Cl)c12 [[(1-Chloro-4-hydroxy-7-methoxy-benzo[4,5]thieno[3,2-c]pyridine-3-carbonyl)-amino]-acetic acid] | < 25 µM | I (I = 0-20 mIU/ml) | 21 to 50
5 | O=C(O)CNC(=O)c1nc(Cl)c2c(sc3ccc(S(=O)(=O)Cc4ccccc4)cc32)c1O [[(1-Chloro-4-hydroxy-8-phenylmethanesulfonyl-benzo[4,5]thieno[3,2-c]pyridine-3-carbonyl)-amino]-acetic acid] | 26 to 100 µM | – | –
6 | O=C(O)CNC(=O)c1nc(Cl)c2c(sc3ccc(C(F)(F)F)cc32)c1O [[(1-Chloro-4-hydroxy-8-trifluoromethyl-benzo[4,5]thieno[3,2-c]pyridine-3-carbonyl)-amino]-acetic acid] | < 25 µM | J (J = 21-40 mIU/ml) | 21 to 50
7 | Cc1nc(C(=O)NCC(=O)O)c(O)c2sc3ccccc3c12 [[(4-Hydroxy-1-methyl-benzo[4,5]thieno[3,2-c]pyridine-3-carbonyl)-amino]-acetic acid] | – | J (J = 21-40 mIU/ml) | > 71
8 | O=C(O)CNC(=O)c1ncc2c(oc3ccccc32)c1O [[(4-Hydroxy-benzo[4,5]furo[3,2-c]pyridine-3-carbonyl)-amino]-acetic acid] | – | I (I = 0-20 mIU/ml) | < 20
9 | O=C(O)CNC(=O)c1ncc2c(sc3ccccc32)c1O [[(4-Hydroxy-benzo[4,5]thieno[3,2-c]pyridine-3-carbonyl)-amino]-acetic acid] | – | I (I = 0-20 mIU/ml) | < 20
10 | O=C(O)CNC(=O)c1nc(Cl)c2[nH]ccc2c1O [[(7-Chloro-4-hydroxy-1H-pyrrolo[2,3-c]pyridine-5-carbonyl)-amino]-acetic acid] | > 201 µM | – | –
11 | O=C(O)CNC(=O)c1ncc2c(-c3ccccc3)coc2c1O [[(7-Hydroxy-3-phenyl-furo[3,2-c]pyridine-6-carbonyl)-amino]-acetic acid] | 101 to 200 µM | – | –
12 | O=C(O)CNC(=O)c1nc(Cl)c2c(sc3ccc([S+]([O-])c4ccccc4)cc32)c1O (centres unmarked) [[(8-Benzenesulfinyl-1-chloro-4-hydroxy-benzo[4,5]thieno[3,2-c]pyridine-3-carbonyl)-amino]-acetic acid] | < 25 µM | – | –
13 | O=C(O)CNC(=O)c1nc(Cl)c2c(sc3ccc(S(=O)(=O)c4ccccc4)cc32)c1O [[(8-Benzenesulfonyl-1-chloro-4-hydroxy-benzo[4,5]thieno[3,2-c]pyridine-3-carbonyl)-amino]-acetic acid] | < 25 µM | – | –
14 | O=C(O)CNC(=O)c1nc(Cl)c2c(sc3ccc(NCc4ccccc4)cc32)c1O [[(8-Benzylamino-1-chloro-4-hydroxy-benzo[4,5]thieno[3,2-c]pyridine-3-carbonyl)-amino]-acetic acid] | < 25 µM | – | –
15 | O=C(O)CN(O)C(=O)c1ncc2c(sc3ccccc32)c1O [[Hydroxy-(4-hydroxy-benzo[4,5]thieno[3,2-c]pyridine-3-carbonyl)-amino]-acetic acid] | 101 to 200 µM | – | –

The next lines start with results.

Row | IC50 (HIF-PH2 (EGLN1)) | SMILES | EPO (mIU/ml) (EPO) | fold induction at 100 µM (EPO)
16 | 26 to 100 µM | O=C(NCc1cccnc1)c1nc(Br)c2c(sc3ccccc32)c1O [1-Bromo-4-hydroxy-benzo[4,5]thieno[3,2-c]pyridine-3-carboxylic acid (pyridin-3-ylmethyl)-amide] | – | –
17 | > 201 µM | C[C@H](NC(=O)c1ncc2ccoc2c1O)C(=O)O [(S)-2-[(7-Hydroxy-furo[3,2-c]pyridine-6-carbonyl)-amino]-propionic acid] | – | –
18 | < 25 µM | COC(=O)CNC(=O)c1nc(Cl)c2c(ccn2S(=O)(=O)c2ccccc2)c1O [[(1-Benzenesulfonyl-7-chloro-4-hydroxy-1H-pyrrolo[2,3-c]pyridine-5-carbonyl)-amino]-acetic acid methyl ester] | – | –
19 | < 25 µM | O=C(O)CNC(=O)c1nc(Cl)c2c(ccn2S(=O)(=O)c2ccccc2)c1O [[(1-Benzenesulfonyl-7-chloro-4-hydroxy-1H-pyrrolo[2,3-c]pyridine-5-carbonyl)-amino]-acetic acid] | I (I = 0-20 mIU/ml) | < 20
20 | < 25 µM | O=C(O)CNC(=O)c1nc(Cl)c2c(sc3cc(O)ccc32)c1O [[(1-Chloro-4,7-dihydroxy-benzo[4,5]thieno[3,2-c]pyridine-3-carbonyl)-amino]-acetic acid] | I (I = 0-20 mIU/ml) | < 20
21 | < 25 µM | CCN(CC)c1ccc2sc3c(O)c(C(=O)NCC(=O)O)nc(Cl)c3c2c1 [[(1-Chloro-8-diethylamino-4-hydroxy-benzo[4,5]thieno[3,2-c]pyridine-3-carbonyl)-amino]-acetic acid] | J (J = 21-40 mIU/ml) | 21 to 50
22 | 26 to 100 µM | CCS(=O)(=O)c1ccc2sc3c(O)c(C(=O)NCC(=O)O)nc(Cl)c3c2c1 [[(1-Chloro-8-ethanesulfonyl-4-hydroxy-benzo[4,5]thieno[3,2-c]pyridine-3-carbonyl)-amino]-acetic acid] | – | –
23 | < 25 µM | CCNc1ccc2sc3c(O)c(C(=O)NCC(=O)O)nc(Cl)c3c2c1 [[(1-Chloro-8-ethylamino-4-hydroxy-benzo[4,5]thieno[3,2-c]pyridine-3-carbonyl)-amino]-acetic acid] | K (K = 41-60 mIU/ml) | 51 to 70
24 | 101 to 200 µM | CC(C)Oc1c(C(=O)NCC(=O)O)nc(Cl)c2c1sc1ccc(O)cc12 [[(1-Chloro-8-hydroxy-4-isopropoxy-benzo[4,5]thieno[3,2-c]pyridine-3-carbonyl)-amino]-acetic acid] | – | –
25 | 101 to 200 µM | COc1c(C(=O)NCC(=O)O)nc(Cl)c2c1sc1ccc(O)cc12 [[(1-Chloro-8-hydroxy-4-methoxy-benzo[4,5]thieno[3,2-c]pyridine-3-carbonyl)-amino]-acetic acid] | – | –
26 | > 201 µM | Nc1c(C(=O)NCC(=O)O)nc(Br)c2c1sc1ccccc12 [[(4-Amino-1-bromo-benzo[4,5]thieno[3,2-c]pyridine-3-carbonyl)-amino]-acetic acid] | – | –
27 | > 201 µM | O=C(O)CN(O)C(=O)c1ncc2c(sc3ccccc32)c1Cl [[(4-Chloro-benzo[4,5]thieno[3,2-c]pyridine-3-carbonyl)-hydroxy-amino]-acetic acid] | – | –
28 | > 201 µM | O=C(O)CNC(=O)c1ncc2ccoc2c1O [[(7-Hydroxy-furo[3,2-c]pyridine-6-carbonyl)-amino]-acetic acid] | – | –
